Assay results as given in article PMC12150326 (The Journal of Organic Chemistry, 2025).
Where two headings read alike, the source gives them in different places.

How the values were obtained:
Format in all cases: cell-based, human
NCI-H522 = test system: NCI-H522
Experimental: (§1) (aR)-6, (aS)-6, (aS)-iso -6, and (aR)-iso -6 were submitted to the 60 Cell Screen panel and evaluated at 5 doses (100 μM, 10 μM, 1 μM, 0.1 μM, and 0.01 μM). […] The complete report from this submission is available at the publisher’s Web site as a separate Supporting Information file. For COMPARE analysis, TGI levels of response for (aR)-DM-MTC (6) and (aS)-iso-DM-MTC were compared to those of several established tubulin inhibitors previously tested in the NCI-60 screen.

HL-60(TB) = test system: HL-60(TB)
Experimental: as §1

SK-OV-3 = test system: SK-OV-3
Experimental: as §1

SK-MEL-28 = test system: SK-MEL-28
Experimental: as §1

A498 = test system: A498
Experimental: as §1

SK-MEL-2 = test system: SK-MEL-2
Experimental: as §1

HOP-92 = test system: HOP-92
Experimental: as §1

MCF7 = test system: MCF7
Experimental: as §1

NCI 60 cell lines = test system: NCI 60 cell lines
Experimental: as §1

PC-3 = test system: PC-3
Experimental: as §1

HT29 = test system: HT29
Experimental: as §1

MDA-MB-468 = test system: MDA-MB-468
Experimental: as §1

OVCAR-4 = test system: OVCAR-4
Experimental: as §1

SN12C = test system: SN12C
Experimental: as §1

NCI-H460 = test system: NCI-H460
Experimental: as §1

COLO 205 = test system: COLO 205
Experimental: as §1

A549/ATCC = test system: A549/ATCC
Experimental: as §1

MALME-3M = test system: MALME-3M
Experimental: as §1

EKVX = test system: EKVX
Experimental: as §1

ACHN = test system: ACHN
Experimental: as §1

IGROV1 = test system: IGROV1
Experimental: as §1

HCT-116 = test system: HCT-116
Experimental: as §1

HOP-62 = test system: HOP-62
Experimental: as §1

M14 = test: Cell-growth inhibition (CellTiter); details: Homo sapiens, M14, 72 h, M14, 3 days; read-out: Cell Growth Inhibition GI50 ± SE
Method in brief: (§2)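 NCI-screen cell lines grown in DMEM with 10% FBS and exposed to serial compound dilutions for 3 days. Growth measured with CellTiter reagent, with growth inhibition derived per the manufacturer's method.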

PC3 = test: Cell-growth inhibition (CellTiter); details: Homo sapiens, PC-3, 72 h, PC3, 3 days; read-out: Cell Growth Inhibition GI50 ± SE
Method in brief: as §2

A549 = test: Cell-growth inhibition (CellTiter); details: Homo sapiens, A549, 72 h, A549, 3 days; read-out: Cell Growth Inhibition GI50 ± SE
Method in brief: as §2

Compound `COc1cc(C)c(-c2ccc(=O)c(OC)cc2C)c(OC)c1OC` (single isomer, unassigned) [(aS)-iso-6] has a Log10GI50 (NCI-H522) of -4.69 Molar, a Log10LC50 (NCI-H522) of over -4.00 Molar and a Log10TGI (NCI-H522) of -4.15 Molar. It also gave a GI50 (NCI-H522; Homo sapiens) of 20.4 µM, a Log10GI50 (NCI-H522; […]) of -4.69 Molar and a Log10GI50 (HL-60(TB)) of -4.68 Molar. For the same compound, the Log10LC50 (HL-60(TB)) was over -4.00 Molar, the Log10TGI (HL-60(TB)) was -4.02 Molar and the GI50 (HL-60(TB); Homo sapiens) was 20.9 µM. It also gave a Log10GI50 (HL-60(TB); […]) of -4.68 Molar, a Log10GI50 (SK-OV-3) of -4.57 Molar and a Log10LC50 (SK-OV-3) of over -4.00 Molar. The Log10TGI (SK-OV-3) was over -4.00 Molar, the GI50 (SK-OV-3; Homo sapiens) was 26.9 µM and the Log10GI50 (SK-OV-3; […]) was -4.57 Molar. The Log10GI50 (SK-MEL-28) was over -4.00 Molar, the Log10LC50 (SK-MEL-28) was over -4.00 Molar and the Log10TGI (SK-MEL-28) was over -4.00 Molar. For the same compound, the Log10GI50 (A498) was -4.85 Molar, the Log10LC50 (A498) was over -4.00 Molar and the Log10TGI (A498) was -4.28 Molar. The GI50 (A498; Homo sapiens) was 14.1 µM, the Log10GI50 (A498; […]) was -4.85 Molar and the Log10GI50 (SK-MEL-2) was -4.69 Molar. The Log10LC50 (SK-MEL-2) was over -4.00 Molar, the Log10TGI (SK-MEL-2) was over -4.00 Molar and the GI50 (SK-MEL-2; Homo sapiens) was 20.4 µM. The Log10GI50 (SK-MEL-2; […]) was -4.69 Molar, the Log10GI50 (HOP-92) was -4.99 Molar and the Log10LC50 (HOP-92) was over -4.00 Molar. The Log10TGI (HOP-92) was over -4.00 Molar, the GI50 (HOP-92; Homo sapiens) was 10.2 µM and the Log10GI50 (HOP-92; […]) was -4.99 Molar. For the same compound, the Log10GI50 (MCF7) was -4.60 Molar, the Log10LC50 (MCF7) was over -4.00 Molar and the Log10TGI (MCF7) was over -4.00 Molar. For the same compound, the GI50 (MCF7; Homo sapiens) was 25.1 µM, the Log10GI50 (MCF7; […]) was -4.6 Molar and the “fold less potent than (aR)-6 in NCI-60 screen” value (NCI 60 cell lines) was “approximately 10 fold”. For the same compound, the selectivity range (NCI 60 cell lines; NCI-60, GI50 level) was 1.46 log units, the “Log10 Range at TGI” value (NCI 60 cell lines; NCI-60 cell line selectivity) was 0.81 and the GI50 (NCI 60 cell lines; NCI-60 mean) was 27 µM. For the same compound, the “Mean TGI” value (NCI 60 cell lines; NCI-60 mean total growth inhibition) was 91 µM, the “Delta Log10GI50” value (NCI 60 cell lines; mean graph) was 0.89 and the “Delta Log10LC50” value (NCI 60 cell lines; mean graph) was 0. The “Delta Log10TGI” value (NCI 60 cell lines; mean graph) was 0.77, the “Range Log10GI50” value (NCI 60 cell lines; mean graph) was 1.46 and the “Range Log10LC50” value (NCI 60 cell lines; mean graph) was 0.0. For the same compound, the “Range Log10TGI” value (NCI 60 cell lines; mean graph) was 0.81, the “_MID Log10GI50” value (NCI 60 cell lines; mean graph midpoint) was -4.57 Molar and the “_MID Log10LC50” value (NCI 60 cell lines; mean graph midpoint) was -4.0 Molar. The “_MID Log10TGI” value (NCI 60 cell lines; mean graph midpoint) was -4.04 Molar, the Log10GI50 (PC-3) was -4.50 Molar and the Log10LC50 (PC-3) was over -4.00 Molar. The Log10TGI (PC-3) was over -4.00 Molar, the GI50 (PC-3; Homo sapiens) was 31.6 µM and the Log10GI50 (PC-3; […]) was -4.5 Molar. For the same compound, the Log10GI50 (HT29) was -4.60 Molar, the Log10LC50 (HT29) was over -4.00 Molar and the Log10TGI (HT29) was -4.03 Molar. For the same compound, the GI50 (HT29; Homo sapiens, HT-29) was 25.1 µM, the Log10GI50 (HT29; […]) was -4.6 Molar and the Log10GI50 (MDA-MB-468) was -4.85 Molar. The Log10LC50 (MDA-MB-468) was over -4.00 Molar, the Log10TGI (MDA-MB-468) was over -4.00 Molar and the GI50 (MDA-MB-468; Homo sapiens) was 14.1 µM. It also gave a Log10GI50 (MDA-MB-468; […]) of -4.85 Molar, a Log10GI50 (OVCAR-4) of -4.04 Molar and a Log10LC50 (OVCAR-4) of over -4.00 Molar. For the same compound, the Log10TGI (OVCAR-4) was over -4.00 Molar, the GI50 (OVCAR-4; Homo sapiens) was 91.2 µM and the Log10GI50 (OVCAR-4; […]) was -4.04 Molar. For the same compound, the Log10GI50 (SN12C) was -4.42 Molar, the Log10LC50 (SN12C) was over -4.00 Molar and the Log10TGI (SN12C) was over -4.00 Molar. For the same compound, the GI50 (SN12C; Homo sapiens) was 38 µM, the Log10GI50 (SN12C; […]) was -4.42 Molar and the Log10GI50 (NCI-H460) was -4.50 Molar. It also gave a Log10LC50 (NCI-H460) of over -4.00 Molar, a Log10TGI (NCI-H460) of over -4.00 Molar and a GI50 (NCI-H460; Homo sapiens) of 31.6 µM. It also gave a Log10GI50 (NCI-H460; […]) of -4.5 Molar, a Log10GI50 (COLO 205) of -4.66 Molar and a Log10LC50 (COLO 205) of over -4.00 Molar. It also gave a Log10TGI (COLO 205) of -4.23 Molar, a GI50 (COLO 205; Homo sapiens) of 21.9 µM and a Log10GI50 (COLO 205; […]) of -4.66 Molar. It also gave a Log10GI50 (A549/ATCC) of -4.45 Molar, a Log10LC50 (A549/ATCC) of over -4.00 Molar and a Log10TGI (A549/ATCC) of over -4.00 Molar. For the same compound, the GI50 (A549/ATCC; Homo sapiens) was 35.5 µM, the Log10GI50 (A549/ATCC; […]) was -4.45 Molar and the Log10GI50 (MALME-3M) was -4.42 Molar. It also gave a Log10LC50 (MALME-3M) of over -4.00 Molar, a Log10TGI (MALME-3M) of over -4.00 Molar and a Log10GI50 (EKVX) of -4.18 Molar. It also gave a Log10LC50 (EKVX) of over -4.00 Molar, a Log10TGI (EKVX) of over -4.00 Molar and a GI50 (EKVX; Homo sapiens) of 66.1 µM. The Log10GI50 (EKVX; […]) was -4.18 Molar, the Log10GI50 (ACHN) was -4.07 Molar and the Log10LC50 (ACHN) was over -4.00 Molar. It also gave a Log10TGI (ACHN) of over -4.00 Molar, a GI50 (ACHN; Homo sapiens) of 85.1 µM and a Log10GI50 (ACHN; […]) of -4.07 Molar. The Log10GI50 (IGROV1) was -4.32 Molar, the Log10LC50 (IGROV1) was over -4.00 Molar and the Log10TGI (IGROV1) was over -4.00 Molar. The GI50 (IGROV1; Homo sapiens, IGROV-1) was 47.9 µM, the Log10GI50 (IGROV1; […]) was -4.32 Molar and the Log10GI50 (HCT-116) was -4.60 Molar. For the same compound, the Log10LC50 (HCT-116) was over -4.00 Molar, the Log10TGI (HCT-116) was over -4.00 Molar and the GI50 (HCT-116; Homo sapiens) was 25.1 µM. For the same compound, the Log10GI50 (HCT-116; […]) was -4.6 Molar, the Log10GI50 (HOP-62) was -4.46 Molar and the Log10LC50 (HOP-62) was over -4.00 Molar. For the same compound, the Log10TGI (HOP-62) was over -4.00 Molar, the GI50 (HOP-62; Homo sapiens) was 34.7 µM and the Log10GI50 (HOP-62; […]) was -4.46 Molar. It also gave a GI50 (M14) of over 20 µM, a GI50 (PC3) of over 20 µM and a GI50 (A549) of over 20 µM.
